Laboratory results published in paper PMC11643690, “Chelating Properties of N6O-Donors Toward Cu(II) Ions: Speciation in Aqueous Environments and Catalytic Activity of the Dinuclear Complexes” (Molecules, 2024).

Columns and labels:
[1] = Peroxidase-like (pro-oxidant) activity, OPD oxidation to DAP by H2O2; assay type: biochemical; conditions: 3.2 μM complex or salt, 0.32 mM OPD, 24 mM H2O2, PBS pH 7.8, 18 h, 25 °C
From the text: The pro-oxidant activity is named after another enzyme, the peroxidase. It is important to underline that this is a drawback of the studied complexes. Peroxidase, such as the already described […], decomposes hydrogen peroxide, producing water, but at the cost of oxidizing another substrate. Similarly, the complexes described here could remove hydrogen peroxide, catalyzing the oxidation of an organic substrate and leading to an enhancement of oxidative stress. Since all the catalytic measurements made so far were in the absence of an oxidizable substrate (excluding the catalyst itself), it is important to also verify this phenomenon. […] This variation in absorbance was monitored for 18 h via UV–Vis spectroscopy. […]
Figure S52: A) UV-vis spectra of [Cu2(L-RNH2)(H2O)2](ClO4)3 in a CAT assay measured every 10 minutes and centered at 450 nm. […] The arrow indicates the absorbance trend over time. B) Oxygen evolution (blue line) and absorbance at 244 nm (green dots) versus time.
For the peroxidase-like activity the variation of absorbance over time was monitored via UV-vis spectroscopy. The substrate OPD (o-phenylenediamine) was oxidized to DAP (2,3-diaminephenazine) by H2O2 in the presence of copper ions, leading to an increase of absorbance at 418 nm. […] The kinetic was recorded in a quartz cuvette with an optical path of 1 cm for 18h (acquiring a spectrum every 20 minutes) at 25°C. […]

[2] = UV–Vis titration of ligands with Cu(ClO4)2, binding constant by non-linear regression; conditions: global formation constant β1,2 (1 ligand : 2 Cu(II)); 1 µM ligand, 5% v/v MeOH/BBS 50 mM, pH 7.4, 25 °C
Method: To determine the overall equilibrium constant β1,2 (Kbind), a solution of the ligand was titrated with aliquots of 0.2 equivalents of Cu(II). Monitoring the formation of the complex via UV–Vis spectroscopy, the absorbance around 260 nm, 300 nm, 450 nm, and 700 nm increased during the titration (Figure 3a) in all cases. The latter two bands are visible only at high concentrations (>0.1 mM). These changes are caused by the formation of the complex and the disappearance of the free ligand.
In Figure 3b, the linear increase in the absorbance change (ΔAbs) at 240 nm, upon an increase in Cu(II) amount, is evident, leading to a sharp plateau around 2 equivalents. […] The binding constants were determined by non-linear regression analysis of Equation (2), (2) ∆A/b=(K1∆A1Cu+ β1,2∆A2Cu^2)/1+K1Cu+ β1,2Cu^2 which traces the correlation “ΔAbs/b vs. Cu(II) concentration,” according to K. Connors. In this equation, ΔA is the differences in absorbance at a certain wavelength, b is the optical path (1 cm), K1 is the constant for the formation of the complex 1:1, and β1,2 is the global formation constant (Kbind) for the complex 1:2. ΔA1 and ΔA2 are the differences in absorbance due to the formation of the 1:1 complex and the 1:2 complex, respectively. […]
UV-vis spectra of ligands and complexes were recorded in a quartz cuvette, with 1 cm of optical path. […]

[3] = Potentiometric titration of the Cu(II)/L-CH3 system (constants of in situ-formed complexes); assay type: binding; conditions: for logβi of in situ-formed Cu(II) complex species: overall constant, Cu(II):L 1:1 and 2:1, DMSO 5% (v/v)/H2O (HCl/KCl); for logKi of in situ-formed Cu(II) complex species: stepwise protonation constant
Method: The next step was the analysis of the system with L-CH3 and Cu(II). For a better investigation of the binging abilities of the L-CH3 ligand, the titration was performed both for the Cu(II):L-CH3 molar ratio = 1:1 and for 2:1. The overall (logβi) and stepwise (logKi) protonation constants of in situ-formed complexes are collected in Table 2. Depending on pH, L-CH3 forms mono- and di-nuclear complexes with Cu(II) ions, their relative abundance depending on the metal-to-ligand molar ratio.
Potentiometric measurements were carried out using the Metrohm pH-meter system (Herisau, Switzerland) with a Metrohm semi-micro combination electrode at 25 °C, calibrated in a hydrogen ion concentration using HCl. The ligands were dissolved in DMSO (5% v/v/H2O (HCl/KCl)) in order to obtain a concentration of 1 mM. The titrant (KOH 0.1M) was added with a micrometric syringe at 298 K in the pH range of 2.5–11.5 in an argon atmosphere. The stability constants and stoichiometry of the complexes were calculated using the titration curves and the SUPERQUAD and HYPERQUAD [47, 48].

[4] = cited from earlier work

Row | logβi of in situ-formed Cu(II) complex species [3] | logKi of in situ-formed Cu(II) complex species [3] | Compound | other results
1 | 15.50 ± 0.03 | 9.26 | Cc1cc(CN(Cc2ccccn2)Cc2ccccn2)c([O-])c(CN(Cc2ccccn2)Cc2ccccn2)c1.[Cu+2].[Cu+2] [[Cu2L]^3+] | 
2 | 17.02 ± 0.03 | 6.82 | Cc1cc(CN(Cc2ccccn2)Cc2ccccn2)c(O)c(CN(Cc2ccccn2)Cc2ccccn2)c1.[Cu+2] [[CuHL]^2+] | 
3 | 10.20 ± 0.03 | 9.58 | Cc1cc(CN(Cc2ccccn2)Cc2ccccn2)c([O-])c(CN(Cc2ccccn2)Cc2ccccn2)c1.[Cu+2] [[CuL]^+] | 

Continued, compound first:

Row | Compound | logβi of in situ-formed Cu(II) complex species [3] | logKi of in situ-formed Cu(II) complex species [3] | other results
4 | O.O.O.O.O.O.[Cu+2].[O-][Cl+3]([O-])([O-])[O-].[O-][Cl+3]([O-])([O-])[O-] [Cu(ClO4)2, copper perchlorate] |  |  | peroxidase-like (pro-oxidant) activity, Abs at 418 nm vs time [1]: much higher
5 | NCCc1cc(CN(Cc2ccccn2)Cc2ccccn2)c(O)c(CN(Cc2ccccn2)Cc2ccccn2)c1 [HL-RNH2] |  |  | Kbind [2]: > 10^12 M^−2
6 | Cu/Zn-SOD(human): native Cu/Zn superoxide dismutase enzyme |  |  | log(kSOD) [4]: 9.30
